Biological target: BAX (Homo sapiens, UniProt Q07812)
Assay: Liposome membrane permeabilization / dye release assay (cBID activated BAX)
Format: biochemical
Parameters: made in house; host or cells: Escherichia coli BL21-AI
Settings: 20 nM cBID and 100 nM BAX
Procedure: The preparation of liposomes and dye-release assays were as previously described (Kale et al., 2014). The composition of liposomes, in molar %, to make a 1 mg/mL lipid film are as follows: 48% phosphatidylcholine, 28% phosphatidylethanolamine, 10% phosphatidylinositol, 10% dioleoyl phosphatidylserine, and 4% tetraoleoyl cardiolipin. Each lipid (dissolved in chloroform) was mixed in a glass test tube. Using a steady stream of nitrogen pointed inside the test tube, the tube is rotated to create a film of lipids on the glass. The tube is filled with nitrogen and covered with parafilm. The dried lipid film is then stored at −20° C. until needed. […]
The choice of ANTS/DPX or Terbium:DPA liposomes for dye release assays was dictated by the properties of those compounds being assayed for BAX inhibitory activity, that affected the fluorescence of ANTS or Terbium.
For ANTS/DPX dye release assays: ANTS (fluorophore; excitation 355 nm, emission 520 nm) and DPX (collisional quencher) are encapsulated in reconstituted liposomes. When the membrane is permeabilized, ANTS and DPX diffuse to the outside of the liposomes, decreasing the effective concentration DPX and therefore quenching by […] is decreased and ANTS fluorescence increases. […] The plate was then read a third time to assess the fluorescence of ANTS upon full dissociation of liposomes in each well (F100). […]

Chain of BAX (Q07812 whole entry): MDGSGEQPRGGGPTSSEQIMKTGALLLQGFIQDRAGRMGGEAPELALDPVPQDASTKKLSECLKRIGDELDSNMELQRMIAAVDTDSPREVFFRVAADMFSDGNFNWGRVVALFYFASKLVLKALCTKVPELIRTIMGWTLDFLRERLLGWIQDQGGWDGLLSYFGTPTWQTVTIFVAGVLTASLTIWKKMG

Compound	BAX inhibitory activity, cBID activated BAX mediated liposome permeabilization
COc1cc2ncnc(Nc3ccc(F)c(Cl)c3)c2cc1NC(=O)/C=C/CN1CCCCC1 [Dacomitinib, reference compound]	identified in a screen for compounds that inhibit
COc1cc2ccnc(Nc3ccc(F)c(Cl)c3)c2cc1NC(=O)CCCN1CCCCC1 [Compound I-1, N-(1-((3-chloro-4-fluorophenyl)amino)-6-methoxyisoquinolin-7-yl)-4-(piperidin-1-yl)butanamide]	retained BAX inhibitory activity equivalent to comparative compound dacomitinib
